Assay [1] addresses T1, HRV-14 3Cpro (Human rhinovirus 14, UniProt P03303).
T1 construct: most efficiently processed substrate by HRV-14 3Cpro (Acro, Beijing, China); purchased Acro, Beijing, China
As to conditions: cited from earlier work.

The target of assay [2] is T1, HRV-14 3Cpro. Description: HRV-14 3Cpro enzyme inhibition assay (Dabcyl-[…]-Edans cleavage, fluorescence). Type of assay: biochemical. As to conditions: for inhibition at 50 µM / Inhibition % HRV 3Cpro @ 50 μM: 50 μM compound, single point; for IC50: concentration-response, 50 μM to 0.617 μM, n = 5, mean ± SEM. Here is the method:
In the in vitro cleavage assay, the peptide Dabcyl-[…]-Edans was identified as the most efficiently processed substrate by HRV-14 3Cpro (Acro, Beijing, China), and was subsequently utilized in the enzyme inhibition assay. A total of 44 candidate compounds were purchased from Topscience (TargetMol, United States). Dimethyl sulfoxide (DMSO) (Innochem, Beijing, China) served as the solvent for dissolving the compounds, and all solutions were stored at −20°C. The assays were conducted using 100 μL reaction samples, which comprised 1 μL of protease, 10 μL of a 10 μM substrate solution, and varying concentrations of the tested compounds (ranging from 50 μM to 0.617 μM) in a 50 mM Tris buffer at pH 7.0. To evaluate the inhibitory effects of the compounds, the protease and each compound were preincubated at 37°C for 30 min before the addition of the substrate. The reaction mixture was subsequently incubated for 1 h at 37°C. Fluorescence measurements were performed using a multifunction enzyme label reader (SpectraMax M5, Molecular Devices), set to an excitation wavelength of 340 nm and an emission wavelength of 490 nm. […] The inhibition rate was quantified according to the following formula: Inhibition rate 100%=RFUemzyme−RFUsample/RFUemzyme−RFUcontrol×100%

Assay [3] has as its system HRV-14. As to conditions: ref Binford et al., 2007; Zalman et al., 2000; read-out: antiviral activity EC50; cited from earlier work.

The structures appear in SMILES notation. Read-outs that look alike come from different tables or passages of the source.

T1 sequence (P03303 1538-1719): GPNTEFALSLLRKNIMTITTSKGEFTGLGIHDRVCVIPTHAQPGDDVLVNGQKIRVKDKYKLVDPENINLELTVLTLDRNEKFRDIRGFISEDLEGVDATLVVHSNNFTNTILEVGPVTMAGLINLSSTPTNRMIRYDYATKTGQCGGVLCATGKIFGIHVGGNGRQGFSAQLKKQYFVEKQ

The pIC50 is −log10 of the IC50, conventionally taken in molar units. Take `O=c1cc(-c2cccnc2)[nH]c2cc(Cc3ccccc3)ccc12` [Compound 14]: the pIC50 in assay [1] (non-covalent inhibitor, ref Baxter et al., 2011) was 4.7.

As a reminder, the inhibition is the change of the read-out against control, counted positive when it falls. Read a low inhibition as little suppression. A word on the IC50: it is the concentration that gives 50% inhibition. In the case of `Nc1c(NC(=O)NC[C@H]2CCCO2)c(-c2ccccc2)nn1-c1ccc(C(F)(F)F)cc1` [Compound S21], in assay [2], the inhibition at 50 µM came out at 80.5%, the “Inhibition % HRV 3Cpro @ 50 μM” value is on record as 80.5% and the IC50 was found to be 30400 ± 670 nM.

Regarding `O=C(COC(=O)[C@@H](CC(=O)c1ccccc1)Nc1ccc(F)cc1)c1ccccc1` [Compound S33], in assay [2], the inhibition at 50 µM came out at 96.5% and 11300 ± 710 nM corresponded to half-maximal inhibition (IC50).

`CCOc1ccc(NC(=O)[C@H](CC(C)C)NC(=O)[C@H]2CC[C@@H](C)CC2)cc1` [Compound S34]: in assay [2], at 50 µM the inhibition was 75.6%, the “Inhibition % HRV 3Cpro @ 50 μM” value turned out to be 75.5% and half-maximal inhibition (IC50) required 24100 ± 550 nM.

As to `CCC(CC)C(=O)Nc1cccc(C(=O)Nc2ccccc2C(=O)Nc2ccc(OC)cc2)c1` [Compound S43], in assay [2], at 50 µM the inhibition was 88.8%, the “Inhibition % HRV 3Cpro @ 50 μM” value turned out to be 88.7% and the IC50 is 2330 ± 500 nM.

In general, EC50 refers to the midpoint of the concentration-response curve. With `CCOC(=O)/C=C/[C@H](C[C@@H]1CCNC1=O)NC(=O)[C@@H](CC(=O)[C@@H](NC(=O)c1cc(C)on1)C(C)C)Cc1ccc(F)cc1` [Rupintrivir, reference compound], in assay [3], the EC50 was 12 nM. The IC50 in assay [2] was found to be 220 ± 340 nM.

Take `Cc1occc1C(=O)N[C@@H]1C(=O)N[C@@H](Cc2ccc(F)cc2)C(=O)N[C@H](C=O)CCC(=O)N(C)Cc2cccc1c2` [compound 10]: in assay [1] (macrocyclic covalent inhibitor, ref Kawatkar et al., 2016, Namoto et al., 2018), the half-maximal inhibitory concentration (IC50) is 8 nM.

Values taken from paper PMC12122428, “Discovery of non-covalent rhinovirus 3Cpro inhibitors by molecular docking, in vitro assays, molecular dynamics simulations and DFT analyses” (Frontiers in Pharmacology, 2025).
